Series [1] addresses T1, hP2X7 (Homo sapiens, UniProt Q99572).
T1 construct: 1321N1 cells stably expressing the full length human P2X7 gene (1321N1-hP2X7); expressed in transfected cells
T1 sequence (Q99572 1-595): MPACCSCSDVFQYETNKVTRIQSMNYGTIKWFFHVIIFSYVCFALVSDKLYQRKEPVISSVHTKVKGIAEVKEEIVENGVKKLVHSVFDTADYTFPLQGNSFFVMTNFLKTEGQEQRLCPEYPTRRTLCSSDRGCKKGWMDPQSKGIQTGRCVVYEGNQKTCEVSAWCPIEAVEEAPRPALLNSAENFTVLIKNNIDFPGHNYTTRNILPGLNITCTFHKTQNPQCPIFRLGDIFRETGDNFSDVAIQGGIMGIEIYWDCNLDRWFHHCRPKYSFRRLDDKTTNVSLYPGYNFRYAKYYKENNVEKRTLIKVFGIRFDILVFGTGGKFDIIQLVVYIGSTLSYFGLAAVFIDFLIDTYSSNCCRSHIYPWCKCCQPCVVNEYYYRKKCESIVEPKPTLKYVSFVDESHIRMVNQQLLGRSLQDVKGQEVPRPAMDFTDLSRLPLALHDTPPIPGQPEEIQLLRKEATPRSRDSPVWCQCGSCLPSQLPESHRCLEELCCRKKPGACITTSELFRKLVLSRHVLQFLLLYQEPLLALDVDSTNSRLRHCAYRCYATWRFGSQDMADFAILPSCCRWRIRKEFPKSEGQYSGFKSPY
Kind of series: Intracellular Calcium Flux (FLIPR) Assay. Type of series: cell-based. Particulars: 1321N1 cells stably expressing human P2X7; agonist 100 μM BzATP; 20 min equilibration with antagonist; read-out: FLIPR pIC50 hP2X7-1321n1 (converted). The procedure: Stock solutions of compounds were prepared from powders as a 10 mM DMSO stock solution. These solutions were stored at RT during the two week period of these experiments to prevent freeze-thaw of the DMSO stocks. The DMSO stocks were added to the appropriate assay buffer at a concentration of 10 μM, and then diluted serially to the final concentrations that were tested. No observable precipitate was formed at any time during this process. The aqueous solutions of compounds as well as ATP (Sigma A7699) and BzATP (Sigma B6396) were prepared fresh for each day of experiment.
1321N1 cells stably expressing the full length human P2X7 gene (1321N1-hP2X7) and HEK293 cells stably expressing the full length rat P2X7 gene (HEK293-rP2X7) were obtained from the Roche Cell Culture Facility. 1321N1-hP2X7 cells were grown in Dulbecco's Modified Eagle's Medium (DMEM) high glucose supplemented with 10% FBS and 250 μg/mL G418. HEK293-rP2X7 cells were grown in DMEM/F-12 supplemented with 10% FBS, 1 mM CaCl2, 2 mM MgCl2, 2 mM L-Glutamine and 500 μg/ml G418. Cells were split such that they never became >70% confluent.
On the day prior to the experiment, 1321N1-hP2X7 or HEK293-rP2X7 cells were released into suspension with calcium-free PBS+Versene and washed by centrifugation with calcium-free PBS to remove the Versene. Cells were resuspended in growth medium at a density of 2.5×10^5 cells/mL and seeded into black walled, clear bottom 96 well plates (50,000 cells/well) approximately 18 hr prior to intracellular calcium flux experiments.
On the day of the experiment, plates were washed with FLIPR buffer (calcium- and magnesium-free Hank's Balanced Salt Solution (HBSS) supplemented with 10 mM Hepes, 2.5 mM probenecid and 2 mM calcium chloride) using a BIO-TEK 96 channel plate washer and incubated with […] fluo-3 dye at 37° C. for one hr. The dye was then removed by plate washing and the cells were allowed to equilibrate for 20 min at room temperature with antagonist or vehicle (FLIPR buffer). Agonist (100 μM BzATP final concentration for hP2X7; 5 μM BzATP final concentration or rP2X7) was added online with the FLIPR and fluorescence measurements made at 1 sec intervals for 60 sec followed by 3 sec intervals for a further 4 min (5 min total). A final addition of 5 μM ionomycin was made and the maximal BzATP-evoked fluorescence normalized to the maximal ionomycin-evoked fluorescence.

Turning to `COc1ccccc1CNC(=O)C1CCCN(c2cccc3c2C(=O)N(Cc2ccncc2)C3=O)C1` (stereo not shown) [Compound I-1a, 1-(1,3-Dioxo-2-pyridin-4-ylmethyl-2,3-dihydro-1H-isoindol-4-yl)-piperidine-3-carboxylic acid 2-methoxy-benzylamide], the IC50 in series [1] was 155 nM.

As for `COc1ccccc1CNC(=O)[C@@H]1CCCN(c2cccc3c2C(=O)N(Cc2ccncc2)C3=O)C1` [Compound I-1b, (R)-1-(1,3-Dioxo-2-pyridin-4-ylmethyl-2,3-dihydro-1H-isoindol-4-yl)-piperidine-3-carboxylic acid 2-methoxy-benzylamide], the IC50 in series [1] is 55 nM.

In the case of `COc1ccccc1CNC(=O)[C@H]1CCCN(c2cccc3c2C(=O)N(Cc2ccncc2)C3=O)C1` [Compound I-2, (S)-1-(1,3-Dioxo-2-pyridin-4-ylmethyl-2,3-dihydro-1H-isoindol-4-yl)-piperidine-3-carboxylic acid 2-methoxy-benzylamide], in series [1], the IC50 was 741 nM.

As to `O=C(NCC12CC3CC(CC(C3)C1)C2)[C@@H]1CCCN(c2cccc3c2C(=O)N(Cc2ccncc2)C3=O)C1` [Compound I-3, (R)-1-(1,3-Dioxo-2-pyridin-4-ylmethyl-2,3-dihydro-1H-isoindol-4-yl)-piperidine-3-carboxylic acid (adamantan-1-ylmethyl)-amide], in series [1], the IC50 is 107 nM.

Consider `COc1ccccc1NC(=O)[C@@H]1CCCN(c2cccc3c2C(=O)N(Cc2ccncc2)C3=O)C1` [Compound I-4, (R)-1-(1,3-Dioxo-2-pyridin-4-ylmethyl-2,3-dihydro-1H-isoindol-4-yl)-piperidine-3-carboxylic acid (2-methoxy-phenyl)-amide], for which, in series [1], the IC50 is 724 nM.

Consider `COc1ccccc1CNC(=O)[C@@H]1CCCN(c2cccc3c2C(=O)N(CC2CCOCC2)C3=O)C1` [Compound I-5, (R)-1-[1,3-Dioxo-2-(tetrahydro-pyran-4-ylmethyl)-2,3-dihydro-1H-isoindol-4-yl]-piperidine-3-carboxylic acid 2-methoxy-benzylamide], for which, in series [1], the IC50 was 355 nM.

On to `COc1ccccc1CNC(=O)[C@@H]1CCCN(c2cccc3c2C(=O)N(Cc2cncs2)C3=O)C1` [Compound I-6, (R)-1-(1,3-Dioxo-2-thiazol-5-ylmethyl-2,3-dihydro-1H-isoindol-4-yl)-piperidine-3-carboxylic acid 2-methoxy-benzylamide], for which the IC50 in series [1] was 417 nM.

`O=C(NCc1ccccc1OC(F)(F)F)[C@@H]1CCCN(c2cccc3c2C(=O)N(Cc2ccncc2)C3=O)C1` [Compound I-7, (R)-1-(1,3-Dioxo-2-pyridin-4-ylmethyl-2,3-dihydro-1H-isoindol-4-yl)-piperidine-3-carboxylic acid 2-trifluoromethoxy-benzylamide] showed a melting point of 197 to 198 °C. Further, the IC50 in series [1] is 851 nM.

On to `O=C(NCc1cccs1)[C@@H]1CCCN(c2cccc3c2C(=O)N(Cc2ccncc2)C3=O)C1` [Compound I-8, (R)-1-(1,3-Dioxo-2-pyridin-4-ylmethyl-2,3-dihydro-1H-isoindol-4-yl)-piperidine-3-carboxylic acid (thiophen-2-ylmethyl)-amide], for which the melting point was 193 to 194 °C. Besides, in series [1], the IC50 is 437 nM.

`CCOc1ccccc1CNC(=O)[C@@H]1CCCN(c2cccc3c2C(=O)N(Cc2ccncc2)C3=O)C1` [Compound I-9, (R)-1-(1,3-Dioxo-2-pyridin-4-ylmethyl-2,3-dihydro-1H-isoindol-4-yl)-piperidine-3-carboxylic acid 2-ethoxy-benzylamide]: the melting point fell in the range of 194 to 195 °C. In addition, the IC50 in series [1] was 955 nM.

In turn, `COc1cccc(CNC(=O)[C@@H]2CCCN(c3cccc4c3C(=O)N(Cc3ccncc3)C4=O)C2)c1OC` [Compound I-10, (R)-1-(1,3-Dioxo-2-pyridin-4-ylmethyl-2,3-dihydro-1H-isoindol-4-yl)-piperidine-3-carboxylic acid 2,3-dimethoxy-benzylamide] had a melting point of 199 to 200 °C. Besides, the IC50 in series [1] was 182 nM.

As to `O=C(NCc1ccccc1O)[C@@H]1CCCN(c2cccc3c2C(=O)N(Cc2ccncc2)C3=O)C1` [Compound I-11, (R)-1-(1,3-Dioxo-2-pyridin-4-ylmethyl-2,3-dihydro-1H-isoindol-4-yl)-piperidine-3-carboxylic acid 2-hydroxy-benzylamide], the melting point fell in the range of 181 to 182 °C. In series [1], the IC50 is 100 nM.

Take `CSc1ccccc1CNC(=O)[C@@H]1CCCN(c2cccc3c2C(=O)N(Cc2ccncc2)C3=O)C1` [Compound I-12, (R)-1-(1,3-Dioxo-2-pyridin-4-ylmethyl-2,3-dihydro-1H-isoindol-4-yl)-piperidine-3-carboxylic acid 2-methylsulfanyl-benzylamide]: the IC50 in series [1] was 30.9 nM.

Regarding `O=C(NCc1ccccc1F)[C@@H]1CCCN(c2cccc3c2C(=O)N(Cc2ccncc2)C3=O)C1` [Compound I-13, (R)-1-(1,3-Dioxo-2-pyridin-4-ylmethyl-2,3-dihydro-1H-isoindol-4-yl)-piperidine-3-carboxylic acid 2-fluoro-benzylamide], the melting point lay in the range of 196 to 197 °C. Also, in series [1], the IC50 is 110 nM.

Regarding `O=C(NCC1COCCO1)[C@@H]1CCCN(c2cccc3c2C(=O)N(Cc2ccncc2)C3=O)C1` (stereo partly drawn) [Compound I-14, (R)-1-(1,3-Dioxo-2-pyridin-4-ylmethyl-2,3-dihydro-1H-isoindol-4-yl)-piperidine-3-carboxylic acid ([1,4]dioxan-2-ylmethyl)-amide], the melting point fell in the range of 186 to 187 °C. Further, the IC50 in series [1] is 912 nM.

`O=C(NCC1CCCCC1)[C@@H]1CCCN(c2cccc3c2C(=O)N(Cc2ccncc2)C3=O)C1` [Compound I-15, (R)-1-(1,3-Dioxo-2-pyridin-4-ylmethyl-2,3-dihydro-1H-isoindol-4-yl)-piperidine-3-carboxylic acid cyclohexylmethyl-amide] gave a melting point of 172 to 173 °C. The IC50 in series [1] is 708 nM.

With `C[C@H](CO)N1Cc2c(ccc(Cl)c2NC(=O)Cc2ccc(F)c(C(F)(F)F)c2)C1=O` [Compound I-17, N-[5-Chloro-2-((R)-2-hydroxy-1-methyl-ethyl)-1-oxo-2,3-dihydro-1H-isoindol-4-yl]-2-(4-fluoro-3-trifluoromethyl-phenyl)-acetamide], in series [1], the IC50 is 174 nM.

In the case of `C[C@H](CO)N1Cc2c(ccc(Cl)c2NC(=O)CC23CC4CC(CC(C4)C2)C3)C1=O` [Compound I-18a, 2-Adamantan-1-yl-N-[5-chloro-2-((R)-2-hydroxy-1-methyl-ethyl)-1-oxo-2,3-dihydro-1H-isoindol-4-yl]-acetamide], the IC50 in series [1] was 39.8 nM.

In the case of `C[C@H](CO)N1Cc2c(NC(=O)CC34CC5CC(CC(C5)C3)C4)c(Cl)cc(Cl)c2C1=O` [Compound I-18b, 2-Adamantan-1-yl-N-[5,7-dichloro-2-((R)-2-hydroxy-1-methyl-ethyl)-1-oxo-2,3-dihydro-1H-isoindol-4-yl]-acetamide], the IC50 in series [1] was 537 nM.

For `COCCN1Cc2c(ccc(Cl)c2NC(=O)Cc2ccc(F)c(C(F)(F)F)c2)C1=O` [Compound I-20, N-[5-Chloro-2-(2-methoxy-ethyl)-1-oxo-2,3-dihydro-1H-isoindol-4-yl]-2-(4-fluoro-3-trifluoromethyl-phenyl)-acetamide], the IC50 in series [1] was 891 nM.

Source of the values: patent publication US20120157494A1, “ISOINDOLYL COMPOUNDS” (priority 2010, published 2012).
